Reference: US9145425B2, “Cephem compound having catechol group” (SHIONOGI & CO., LTD., priority 2010, dated 2015)
Values after ≈ are worked out from the molar mass of the structure shown. Like-named read-outs stand apart in the source and are kept apart here.

Legend:
Assay type in all cases: cell-based
[1] = tested on: Acinetobacter baumannii SR24396; assay: Minimum Inhibitory Concentration (MIC), agar plate incubation, Japan Society for Chemotherapy standard method
Procedure: (§1) The antimicrobial activity in vitro of the present compound (I) was determined.
(§2) Measurement of Minimum Inhibitory Concentration (MIC, μg/ml) was conducted according to the standard method of the Japan Society for Chemotherapy and the amount of bacteria for inoculation was 1000 cfu/spot, and sensitive disc medium was used as the test medium, and conducted using agar plate incubation.
(§3) In the tables, the unit of the values of inhibitory activity is μg/ml.

[2] = tested on: Klebsiella pneumoniae ATCC 700603; assay: as above
Procedure: as §1, §2, §3

[3] = tested on: Pseudomonas aeruginosa SR24; assay: as above; details: Pseudomonas aeruginosa SR24, no enzyme, ceftazidime sensitive strain, 1000 cfu/spot, sensitive disc medium; for MIC: read-out: Minimum Inhibitory Concentration (MIC)
Procedure: as §1, §2, §3

[4] = tested on: Pseudomonas aeruginosa SR27060; assay: as above
Procedure: as §1, §2, §3

[5] = tested on: Stenotrophomonas maltophilia SR21970; assay: Minimum Inhibitory Concentration (MIC), agar plate incubation, CLSI method
Procedure: as §1
Measurement of Minimum Inhibitory Concentration (MIC, μg/ml) was conducted according to the CLSI (Clinical and Laboratory Standards Institute) and the amount of bacteria for inoculation was 10000 cfu/spot, and Mueller-Hinton agar medium was used as the test medium, and conducted using agar plate incubation.
as §3

[6] = Acinetobacter baumannii SR24396, no enzyme, 1000 cfu/spot, sensitive disc medium, read-out: Minimum Inhibitory Concentration (MIC)
[7] = ATCC700603, Klebsiella pneumoniae ATCC 700603, SHV-18, ESBL producer strain, 1000 cfu/spot, sensitive disc medium, read-out: Minimum Inhibitory Concentration (MIC)
[8] = Pseudomonas aeruginosa SR27060, IMP-1, MBL producer strain (carbapenem resistant strain), 1000 cfu/spot, sensitive disc medium, read-out: Minimum Inhibitory Concentration (MIC)
[9] = Stenotrophomonas maltophilia SR21970, L-1, MBL producer strain (carbapenem resistant strain), 10000 cfu/spot, Mueller-Hinton agar medium, read-out: Minimum Inhibitory Concentration (MIC)
[10] = Acinetobacter baumannii SR24396, no enzyme, 1000 cfu/spot, sensitive disc medium
[11] = Klebsiella pneumoniae ATCC 700603, SHV-18, ESBL producer strain, 1000 cfu/spot, sensitive disc medium
[12] = Pseudomonas aeruginosa SR27060, IMP-1, MBL producer strain (carbapenem resistant strain), 1000 cfu/spot, sensitive disc medium
[13] = Stenotrophomonas maltophilia SR21970, L-1, MBL producer strain (carbapenem resistant strain), 10000 cfu/spot, Mueller-Hinton agar medium
[14] = Acinetobacter baumannii, SR24396, read-out: Minimum Inhibitory Concentration (MIC)
[15] = Klebsiella pneumoniae, ATCC700603, read-out: Minimum Inhibitory Concentration (MIC)
[16] = Pseudomonas aeruginosa, SR27060, read-out: Minimum Inhibitory Concentration (MIC)
[17] = Stenotrophomonas maltophilia, SR21970, read-out: Minimum Inhibitory Concentration (MIC)

Row | SMILES | MIC [1, 6] [µg/mL] | MIC [2, 7] [µg/mL] | MIC [3] [µg/mL] | MIC [4, 8] [µg/mL] | MIC [5, 9] [µg/mL] | Minimum Inhibitory Concentration (MIC) [1, 10] [µg/mL] | Minimum Inhibitory Concentration (MIC) [2, 11] [µg/mL] | Minimum Inhibitory Concentration (MIC) [3] [µg/mL] | Minimum Inhibitory Concentration (MIC) [4, 12] [µg/mL] | Minimum Inhibitory Concentration (MIC) [5, 13] [µg/mL] | other results
1 | CC(C)(O/N=C(\C(=O)N[C@@H]1C(=O)N2C(C(=O)[O-])=C(C[N+]3(Cc4nnc(-c5ccc(O)c(O)c5Cl)o4)CCCC3)CS[C@H]12)c1csc(N)n1)C(=O)[O-].[Na+] [Compound I-1] | 0.25 | 0.25 | 0.063 | 0.25 | 1 | – | – | – | – | – | –
2 | CC(C)(O/N=C(\C(=O)N[C@@H]1C(=O)N2C(C(=O)[O-])=C(C[N+]34CCC(CC3)N(C(=O)c3ccc(O)c(O)c3Cl)CC4)CS[C@H]12)c1csc(N)n1)C(=O)[O-].[Na+] [Compound I-5] | 0.125 | 0.25 | 0.063 | 0.5 | 0.5 | – | – | – | – | – | –
3 | CC(C)(O/N=C(\C(=O)N[C@@H]1C(=O)N2C(C(=O)[O-])=C(C[N@+]34CC[C@H](C3)N(C(=O)c3ccc(O)c(O)c3Cl)CC4)CS[C@H]12)c1csc(N)n1)C(=O)[O-].[Na+] [Compound I-6] | 0.125 | 1 | 0.063 | 0.5 | 1 | – | – | – | – | – | –
4 | Nc1nc(/C(=N/O[C@@H](CC(=O)[O-])C(=O)[O-])C(=O)N[C@@H]2C(=O)N3C(C(=O)[O-])=C(C[N+]45CCC(CC4)N(C(=O)c4ccc(O)c(O)c4Cl)CC5)CS[C@H]23)cs1.[Na+].[Na+] [Compound I-9] | 0.125 | 0.125 | 0.063 | 0.25 | 0.5 | – | – | – | – | – | –
5 | Nc1nc(C(=NOC(CC(=O)[O-])C(=O)[O-])C(=O)NC2C(=O)N3C(C(=O)[O-])=C(C[N+]45CCCC4CN(C(=O)c4ccc(O)c(O)c4Cl)CC5)CSC23)cs1.[Na+].[Na+] (stereo not shown) [Compound I-14] | – | – | – | – | – | 0.125 | 0.5 | 0.125 | 0.25 | 1 | –
6 | CC(C)(ON=C(C(=O)NC1C(=O)N2C(C(=O)[O-])=C(C[N+]34CCCC3CN(C(=O)c3ccc(O)c(O)c3Cl)CC4)CSC12)c1csc(N)n1)C(=O)[O-].[Na+] (stereo not shown) [Compound I-15] | – | – | – | – | – | 0.25 | 0.25 | 0.063 | 0.5 | 1 | –
7 | CC(ON=C(C(=O)NC1C(=O)N2C(C(=O)[O-])=C(C[N+]34CCCC3CN(C(=O)c3ccc(O)c(O)c3Cl)CC4)CSC12)c1csc(N)n1)C(=O)[O-].[Na+] (stereo not shown) [Compound I-18] | – | – | – | – | – | 0.125 | 0.5 | 0.063 | 1 | 2 | –
8 | CC(C)(O/N=C(\C(=O)N[C@@H]1C(=O)N2C(C(=O)[O-])=C(C[N+]34CCC(CC3)[C@H](NC(=O)c3ccc(O)c(O)c3Cl)C4)CS[C@H]12)c1csc(N)n1)C(=O)O [Compound I-19] | 0.125 (≈ 0.164 µM) | 0.5 (≈ 0.654 µM) | 0.125 (≈ 0.164 µM) | 0.125 (≈ 0.164 µM) | 0.5 (≈ 0.654 µM) | – | – | – | – | – | –
9 | CC(C)(O/N=C(\C(=O)N[C@@H]1C(=O)N2C(C(=O)[O-])=C(C[N+](C)(C)C3CCN(C(=O)c4ccc(O)c(O)c4Cl)CC3)CS[C@H]12)c1csc(N)n1)C(=O)[O-].[Na+] [Compound I-21] | – | – | – | – | – | 0.125 | 0.5 | 0.125 | 1 | 1 | –
10 | CC(ON=C(C(=O)NC1C(=O)N2C(C(=O)[O-])=C(C[N+]34CCC(CC3)N(C(=O)c3ccc(O)c(O)c3Cl)CC4)CSC12)c1csc(N)n1)C(=O)[O-].[Na+] (stereo not shown) [Compound I-23] | – | – | – | – | – | 0.125 | 0.5 | 0.063 | 0.5 | 1 | –
11 | CC(C)(ON=C(C(=O)NC1C(=O)N2C(C(=O)[O-])=C(C[N+]34CCCC3CN(C(=O)c3ccc(O)c(O)c3Cl)CC4)CSC12)c1csc(N)n1)C(=O)[O-].[Na+] (stereo not shown) [Compound I-31] | – | – | – | – | – | 0.25 | 1 | 0.063 | 0.5 | 1 | –
12 | CC(C)(O/N=C(\C(=O)N[C@@H]1C(=O)N2C(C(=O)[O-])=C(C[N+]34CCC(CC3)N(C(=O)c3ccc(O)c(O)c3Cl)CC4)CS[C@H]12)c1nsc(N)n1)C(=O)[O-].[Na+] [Compound I-34] | – | – | – | – | – | 0.125 | 0.5 | 0.063 | 0.5 | 0.5 | –
13 | CC(C)(O/N=C(\C(=O)N[C@@H]1C(=O)N2C(C(=O)O)=C(C[N+]3(C)[C@@H]4CC[C@H]3C[C@@H](NC(=O)c3cc(O)c(O)cc3Cl)C4)CS[C@H]12)c1csc(N)n1)C(=O)[O-] (stereo partly shown) [II-55] | – | – | – | – | – | – | – | – | – | – | MIC [1, 14]: 0.25 µg/mL (≈ 0.321 µM); MIC [2, 15]: 0.25 µg/mL (≈ 0.321 µM); MIC [4, 16]: 0.5 µg/mL (≈ 0.642 µM); MIC [5, 17]: 0.5 µg/mL (≈ 0.642 µM)
14 | C[N+]1(CC2=C(C(=O)[O-])N3C(=O)C(NC(=O)C(=NOC(CC(=O)O)C(=O)[O-])c4csc(N)n4)C3SC2)C2CCC1CC(NC(=O)c1cc(O)c(O)cc1Cl)C2.[Na+] (stereo not shown) [II-56] | – | – | – | – | – | 0.25 | 0.25 | – | 0.5 | 0.5 | –
15 | CC(C)(O/N=C(\C(=O)N[C@@H]1C(=O)N2C(C(=O)O)=C(C[N@+]3(C)[C@@H]4CC[C@H]3C[C@@H](NC(=O)c3cc(F)c(O)c(O)c3F)C4)CS[C@H]12)c1csc(N)n1)C(=O)[O-] [III-9] | – | – | – | – | – | – | – | – | – | – | MIC [1, 14]: 0.125 µg/mL (≈ 0.16 µM); MIC [2, 15]: 0.125 µg/mL (≈ 0.16 µM); MIC [4, 16]: 0.25 µg/mL (≈ 0.321 µM); MIC [5, 17]: 0.5 µg/mL (≈ 0.641 µM)
16 | C[N+]1(CC2=C(C(=O)[O-])N3C(=O)C(NC(=O)C(=NOC(CC(=O)O)C(=O)[O-])c4csc(N)n4)C3SC2)C2CCC1CC(NC(=O)c1cc(F)c(O)c(O)c1F)C2.[Na+] (stereo not shown) [III-10] | – | – | – | – | – | 0.125 | 0.125 | – | 0.25 | 0.5 | –
